Data on 4 molecules can be found in US20220390458A1, “FLUORESCENT PROBE AND APPLICATIONS THEREOF” (CENTRE NATIONAL DE LA RECHERCHE SCIENTIFIQUE (CNRS), priority 2019, published 2022).

A short description of series [1]: DIOLL probe fluorescence-based liposome quantification. The conditions noted are these: POPC liposomes; 21° C.; excitation 390 nm. The procedure: A POPC solution of known concentration (100 μg.ml^−1) was used as standard. Increasing volumes of the standard solution were diluted with buffer in a 96 well plate (Nunc). The final volume per well was 200 μl and lipid concentrations between 0 and 80 μg.ml^−1 were used. Samples were prepared in parallel to a final volume of 200 μl per well.
A constant volume of DIOLL solution in ethanol (5 μl) was added in each well to obtain a final DIOLL concentration of 2 μM. The volume of ethanol added represented 2.5% of the final volume and had no effect on liposome integrity. The plate was incubated at room temperature for 10 min. Fluorescence emission spectra were recorded between 420 nm and 600 nm for an excitation wavelength of 390 nm with a TECAN InfiniteM200 plate reader. Spectra were recorded at 21° C.
The surface under the spectrum was calculated for each condition using an Excel complementary function, IntegralP (www.fordom.free.fr) which allows one to calculate the integral of a function when discrete data sets are available. Maximum fluorescence intensities or surfaces under the curve were plotted as a function of the lipid concentration to obtain the standard curve. […]
To conclude upon the repeatability of the method, the coefficient of variation (CV) was calculated as the percentage of the standard deviation on the mean of 5 independent measurements. […]

For series [2], the system named is influenza virus membranes. The series can be described thus: Labeling of viral membranes and GP calculation. The following applies: 21° C.; excitation 390 nm.
Series [3] in a line: Probe fluorescence in organic solvents of increasing polarity. It is filed as physicochemical. The following applies: 25° C., 2.6 μM probes. The procedure:
Fluorescence measurements were performed with a Hitachi F4500 fluorometer. Excitation and emission slits were fixed at 5 nm and spectra were recorded at 25° C. using a 1 cm path length thermostated quartz micro-cuvette. 0.26 mM solutions of the probes were prepared in a dichloromethane: methanol mixture (3:1 volume ratio). Measurements were performed with […] probes diluted in the different solvents (see Table 1). The initial solvent of the stock solution thus represents 1% of the final volume.

A short description of series [4]: DIOLL fluorescence in DPPC liposomes (plate reader, quantification method). Type of series: physicochemical. The following applies: 21° C., excitation 390 nm. The procedure: (§1) Liposomes were prepared using a classical freeze/thaw protocol. Briefly, the appropriate lipid mixture solubilized in chloroform was dried under vacuum, then solubilized with 1 ml buffer under strong agitation. Assays were done either in HEPES 20 mM pH 7.4 buffer 100 mM NaCl or in PBS. The liposome emulsion obtained was submitted to 6 freeze/thaw cycles (5 min in liquid nitrogen/10 min in a water bath at 37° C., 1 minute strong agitation) to decrease the number of bilayers and obtain unilamellar vesicles. To obtain homogenous vesicles, the liposome solution was extruded successively through a 400 nm and 100 nm polycarbonate membrane using an extruder (Avanti Polar Lipids). Liposomes were routinely prepared at lipid concentrations between 1 and 10 mg.ml^−1 and subsequently diluted at the desired concentration. A constant volume of DIOLL solution in ethanol (5 μl) was added in each well to obtain a final DIOLL concentration of 2 μM. The volume of ethanol added represented 2.5% of the final volume and had no effect on liposome integrity. The plate was incubated at room temperature for 10 min. Fluorescence emission spectra were recorded between 420 nm and 600 nm for an excitation wavelength of 390 nm with a TECAN InfiniteM200 plate reader. Spectra were recorded at 21° C.

Series [5] is described as follows: Probe fluorescence intensity in POPC liposomes. The following applies: 25° C., final concentration 0.2 μM. Type of series: physicochemical.
Series [6] is described as follows: DIOLL fluorescence in DMPC liposomes (plate reader, quantification method). Type of series: physicochemical. The conditions noted are these: 21° C., excitation 390 nm. The method, then: as §1
The nature of series [7]: Determination of nanoemulsion (NE) fluidity with DIOLL probe. Type of series: physicochemical.
The nature of series [8]: Probe fluorescence in DMPC liposomes as a function of temperature (5 to 65° C.). Type of series: physicochemical. The following applies: for maximum emission wavelength, liquid crystalline phase: above phase transition temperature; for maximum emission wavelength, liquid crystalline phase / maximum emission wavelength, gel phase: excitation 385 nm; for maximum emission wavelength, gel phase: below phase transition temperature. The procedure:
Liposomes were prepared in PBS buffer using a classical freeze/though protocol. In brief, lipids dissolved in chloroform were dried under vacuum. The lipid film formed was rehydrated with the PBS solution and agitated until the complete suspension of the lipid film. The vesicle solution was then submitted to 6 freeze/thaw (5 min in liquid nitrogen/10 min in 37° C. water bath) cycles and then extruded 19 times sequentially trough 400 nm and 200 nm polycarbonate membranes (Avanti Polar Lipids Liposome Extruder). The 200 nm liposome suspension was stored at 4° C.
Fluorescence data was obtained using a Hitachi F4500 fluorometer. Emission spectra were recorded between 420 and 600 nm with an excitation wavelength fixed at 385 nm and 5 nm excitation and emission slits. Ethanol solutions of fluorescent probes were prepared and added to liposomes at a 1:400 (probe: phospholipid) molar ratio. Liposomes were used at a 40 μg.mL^−1 final concentration. Measurements were done at 21° C. for all liposome compositions indicated in Table 2, except for DMPC where a range of temperature from 5 to 65° C. was also applied.
The spectral shift described above was quantified by calculation of the Generalized Polarization (GP) parameter. This parameter provides a quantitative index of membrane fluidity and is calculated as the difference between fluorescence emission intensity at a 440 nm (lipids with gel properties) and the intensity at 490 nm (wavelength evidenced in lipids with liquid crystal properties), divided by the sum of these two intensities. The GP parameter was thus calculated from fluorescence emission intensities according to the following formula: […]
where Igel and Ilc are, respectively, intensities of fluorescence at wavelengths characteristic of probe emission, respectively in gel and liquid crystal lipid phases.

For series [9] the following is noted: literature; cited from earlier work.
The conditions of series [10]: carboxylic group; cited from earlier work.
The conditions of series [11]: cited from earlier work.

In general, pKa refers to the negative logarithm of the acid dissociation constant.

Turning to `CCCCCCCCCCCC(=O)c1ccc2cc(N(C)CC(O)CO)ccc2c1` (stereo not shown) [DIOLL, 1-(6-((2,3-dihydroxypropyl)(methyl)amino)naphthalen-2-yl)dodecan-1-one], the “fluorescence intensity emission maximum” value in series [1] stood at 490 nm. The “maximum fluorescence intensity wavelength” value in series [2] is on record as 440 nm. In addition, the Maximum fluorescence intensity amounted to 5041 A. U in series [3] (Chloroform), 9384 A. U in series [3] (DMSO), 7647 A. U in [3] (Ethanol) and 5041 A. U in series [3] (Toluene). Further, the λ emission maximum in [3] (Chloroform) is given as 424 nm; in series [3] (Chloroform, listed as DIOLL probe), 441 nm; in [3] (DMSO), 441 nm; in series [3] (DMSO, listed as DIOLL probe), 460 nm; in series [3] (Ethanol), 486 nm; in [3] (Toluene), 424 nm. Besides, in series [3] (Toluene, listed as DIOLL probe), the λ emission maximum turned out to be 425 nm. For the same molecule, the maximum fluorescence emission in series [4] and in series [6] was 440 nm throughout. The “fluorescence intensity, fold higher than that of Laurdan and C-Laurdan” value in series [5] is 7 fold. Besides, the “fluorescence emission peak dissolved in MCT” value in series [7] (2.6 μM in MCT, single peak) came out at 440 nm. The “fluorescence emission dissolved in water” value in [7] (2.6 μM in water) was “no fluorescence emission was detected”. For the same molecule, the “gel over liquid crystalline ratio of fluorescence intensity” value in series [8] was 0.8. Further, the “inflexion point of first derivative of GP vs temperature” value in series [8] turned out to be 23 °C. In addition, the “maximum emission wavelength, liquid crystalline phase” value in series [8] was found to be 490 nm. In [8], the “maximum emission wavelength, gel phase” value is listed as 440 nm.

Turning to `CCCCN(CCCC)c1ccc2cc(/C=C/c3cc[n+](CC(O)C[N+](C)(C)CCO)cc3)ccc2c1.[Br-].[Br-]` (stereo not shown) [Di-4-ANEPPDHQ], in [9], the “emission maximum, gel phase membranes” value was 560 nm and the “emission maximum, liquid crystalline phase membranes” value is given as 610 nm.

Turning to `CCCCCCCCCCCC(=O)c1ccc2cc(N(C)CC(=O)O)ccc2c1` [C-Laurdan, 6-Dodecanoyl-2-[N-methyl-N-(carboxymethyl)amino] naphthalene], the Maximum fluorescence intensity in series [3] (Chloroform) is given as 3115 A. U; in series [3] (DMSO), 2428 A. U; in [3] (Ethanol), 1491 A. U; in series [3] (Toluene), 359 A. U. In addition, the λ emission maximum in series [3] (Chloroform) amounted to 432 nm; in series [3] (DMSO), 450 nm; in series [3] (Ethanol) it was 485 nm; in series [3] (Toluene), 416 nm. Also, in series [10], the pKa is 6.6.

In series [3] (Chloroform), `CCCCCCCCCCCC(=O)c1ccc2cc(N(C)C)ccc2c1` [Laurdan, 6-dodecanoyl-2-dimethylaminonaphthalene] displayed a Maximum fluorescence intensity of 4441 A. U and a λ emission maximum of 440 nm. In addition, in [3] (DMSO), the Maximum fluorescence intensity was 5533 A. U and the λ emission maximum came to 460 nm. In series [3] (Ethanol), this molecule displayed a Maximum fluorescence intensity of 4221 A. U and a λ emission maximum of 485 nm. Besides, in series [3] (Toluene), the Maximum fluorescence intensity came out at 3814 A. U and the λ emission maximum worked out at 423 nm. The “fluorescence emission peak when incubated with NE solution” value in series [7] (single peak) was found to be 440 nm. Moreover, in series [8], the “gel over liquid crystalline ratio of fluorescence intensity” value came to 0.6; the “inflexion point of first derivative of GP vs temperature” value was 23 °C; the “maximum emission wavelength, liquid crystalline phase” value was “around 490 nm”; the “maximum emission wavelength, gel phase” value was determined as 440 nm. Moreover, the “solubility in aqueous buffers” value in series [11] was “low solubility in aqueous buffers”. In series [9], the “emission maximum, gel phase membranes” value is on record as 440 nm and the “emission maximum, liquid crystalline phase membranes” value was 490 nm.
